From patent US6660300B1, “Method of use of a biphasic controlled release delivery system for high solubility pharmaceuticals and method” (Bristol-Myers Squibb Co., priority 1998, dated 2003)
Structures can show the parent of a compound that is named as a salt.

Tests used:
[1] = cited from earlier work
[2] = hygroscopicity at 95% relative humidity/25° C.
[3] = compaction susceptibility

hygroscopicity, moisture uptake ([2]; at 30 minutes) | compaction susceptibility [3] | hygroscopicity, moisture uptake ([2]; at 6 hours) | Compound | area under the plasma concentration-time profile, jejunum compared with ileum ([1]; drug perfused into jejunum versus ileum) [fold] | drug in plasma ([1]; drug perfused into the colon)
– | – | – | CN(C)C(=N)N=C(N)N [metformin] | 2.5 | not detectable
less than 1% | low | – | CN(C)C(=N)NC(=N)N [metformin (2:1) succinate, Metformin (2:1) Succinate] | – | –
– | low | less than 7% | CN(C)C(=N)N=C(N)N [metformin (2:1) fumarate, Metformin (2:1) Fumarate] | – | –
